# Test results reported in PubChem BioAssay AID1083 (University of Pittsburgh Molecular Library Screening Center, 2008).
# “And” between values parts separate entries of the source, which are not always exact repeats. Equal values may be shown once. The source made the active and inactive calls. No rule for the calls is given here.
# Target: Serine/threonine-protein kinase PLK1 (Homo sapiens) (UniProt P53350)
# Experiment: PLK1 polo-box domain peptide-binding inhibitors, SAR follow-up, biochemical, fluorescence polarization, purchased analogs, concentration response (AID 1083)
# Settings: Plk1 PBD peptide binding
# Sequence of Serine/threonine-protein kinase PLK1 (Homo sapiens) (P53350 whole entry, looked up, the tested form may be a part): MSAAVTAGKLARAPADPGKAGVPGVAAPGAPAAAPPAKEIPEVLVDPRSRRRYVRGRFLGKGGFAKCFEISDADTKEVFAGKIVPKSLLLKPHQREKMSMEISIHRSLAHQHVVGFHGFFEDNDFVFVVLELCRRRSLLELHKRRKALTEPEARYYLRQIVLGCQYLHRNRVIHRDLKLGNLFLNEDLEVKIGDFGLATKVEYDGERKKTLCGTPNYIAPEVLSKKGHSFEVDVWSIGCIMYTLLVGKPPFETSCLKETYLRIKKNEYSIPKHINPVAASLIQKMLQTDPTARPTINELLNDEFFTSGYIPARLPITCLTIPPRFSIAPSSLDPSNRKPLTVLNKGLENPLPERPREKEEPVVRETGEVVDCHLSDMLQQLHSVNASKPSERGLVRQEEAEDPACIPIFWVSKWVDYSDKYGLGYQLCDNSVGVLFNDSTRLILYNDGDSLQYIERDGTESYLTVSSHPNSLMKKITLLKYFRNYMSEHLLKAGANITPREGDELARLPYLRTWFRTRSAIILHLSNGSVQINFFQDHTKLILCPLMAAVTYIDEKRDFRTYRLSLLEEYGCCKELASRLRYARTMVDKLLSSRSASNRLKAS
row,SMILES,IC50
1,CCOC(=O)c1ccc(N=C(c2ccccc2)c2c(O)n(C)c(=O)n(C)c2=O)cc1,> 50 µM (inactive)
2,CCOC(=O)c1ccc(N=Cc2c(O)n(Cc3ccc4c(c3)OCO4)c(=O)[nH]c2=O)cc1,> 50 µM (inactive)
3,CCOC(=O)c1ccc(N=Cc2c(O)n(Cc3cccs3)c(=O)[nH]c2=O)cc1,> 50 µM (inactive)
4,COc1ccc(N(CN2C(=O)c3cc(Cl)c(Cl)cc3C2=O)C(C)=O)cc1,> 50 µM (inactive)
5,CC(=O)N(/N=C1\Sc2ccccc2C1=O)c1ccc(Br)cc1,45.8 µM
6,COc1cc(Br)cc(C=C2C(=O)NC(=O)NC2=O)c1O,> 50 µM (inactive)
7,CCOC(=O)N1CCN(c2cc3nccnc3cc2F)CC1,> 50 µM (inactive)
8,CC(=O)Oc1c(Cl)c(N2CCOCC2)c(OC(C)=O)c2ccccc12,> 50 µM (inactive)
9,CCCCCC(=O)N(CN1C(=O)c2ccccc2C1=O)c1cccc(C(=O)O)c1,> 50 µM (inactive)
10,CCOC(=O)c1ccc(N=Cc2c(O)n(Cc3ccccc3)c(=O)[nH]c2=O)cc1,> 50 µM (inactive)
11,CCCCCCC(=O)N(CN1C(=O)c2ccccc2C1=O)c1ccccc1OC,> 50 µM (inactive)
12,CC(=O)N(CN1C(=O)c2cc(Cl)c(Cl)cc2C1=O)c1ccc(C)c(Cl)c1,> 50 µM (inactive)
13,CC(=O)N(CN1C(=O)c2ccccc2C1=O)c1ccccc1Cl,> 50 µM (inactive)
14,CC(=O)N(/N=C1\Sc2ccccc2C1=O)c1cccc(C)c1,14 µM
15,Cn1c(=O)[nH]c2nnc(-c3ccc(Cl)cc3)nc2c1=O,> 50 µM (inactive)
16,CCOC(=O)c1ccc(N=Cc2c(O)n(C3CCCCC3)c(=O)n(C3CCCCC3)c2=O)cc1,> 50 µM (inactive)
17,CCOC(=O)c1ccc(N=Cc2c(O)n(-c3cccc(OC)c3)c(=O)[nH]c2=O)cc1,> 50 µM (inactive)
18,CCOC(=O)c1ccc(N=Cc2c(O)n(CC)c(=O)[nH]c2=O)cc1,> 50 µM (inactive)
19,CCOC(=O)c1ccc(N=Cc2c(O)n(-c3cccc(C)c3)c(=O)[nH]c2=O)cc1,> 50 µM (inactive)
20,CC(=O)N(/N=C1\Sc2ccccc2C1=O)c1cc(C)ccc1C,> 50 µM (inactive)
21,CCOC(=O)c1ccc(NC(=O)C2C3C=CC(C3)C2(C)C(=O)O)cc1 (centres undefined),> 50 µM (inactive)
22,CC(=O)N(CN1C(=O)c2ccc([N+](=O)[O-])cc2C1=O)c1ccc(Oc2ccccc2)cc1,> 50 µM (inactive)
23,CCCOC(=O)c1ccc(NC(=O)c2ccc(C)c(I)c2)cc1,> 50 µM (inactive)
24,Cc1ccc(-c2nc3c(=O)n(C)c(=O)nc-3n(C)n2)cc1,1.35 µM
25,COc1ccccc1N(CN1C(=O)c2ccccc2C1=O)C(C)=O,> 50 µM (inactive)

row,SMILES,IC50
1,CC(=O)c1ccc(N(CN2C(=O)c3ccc([N+](=O)[O-])cc3C2=O)C(C)=O)cc1,> 50 µM (inactive)
2,COc1cc(C=C2C(=O)NC(=O)NC2=O)ccc1OCc1c(C)no[n+]1[O-],> 50 µM (inactive)
3,Cn1nc(-c2ccc(F)cc2)nc2c(=O)n(C)c(=O)nc1-2,0.325 µM
4,CC(=O)N(CN1C(=O)c2ccccc2C1=O)c1ccc(Oc2ccccc2)cc1,> 50 µM (inactive)
5,CCOC(=O)c1ccc(NC(=O)C2CCCCC2C(=O)O)cc1 (centres undefined),> 50 µM (inactive)
6,CCOC(=O)c1ccc(NC(=O)C23CC4CC(CC(C4)C2)C3)cc1,> 50 µM (inactive)
7,CCn1nc(-c2ccccc2C)nc2c(=O)n(C)c(=O)nc1-2,0.636 µM and 5.67 µM
8,CC(=O)N(/N=C1\Sc2ccccc2C1=O)c1ccccc1I,> 50 µM (inactive)
9,CC(=O)N(/N=C1\Sc2ccccc2C1=O)c1ccccc1[N+](=O)[O-],18.7 µM
10,CCOC(=O)c1ccc(NC(=O)C2OCCc3ccccc32)cc1 (centres undefined),> 50 µM (inactive)
11,CCCCCCC(=O)N(CN1C(=O)c2ccccc2C1=O)c1ccccc1,> 50 µM (inactive)
12,CCOC(=O)c1ccc(NC(=O)C2CCC(C)CC2)cc1 (centres undefined),> 50 µM (inactive)
13,CC(=O)N(/C=C1\Sc2ccccc2C1=O)c1ccc(C)c(C)c1,> 50 µM (inactive)
14,CCCCCOC(=O)c1ccc(NC(=O)c2ccc([N+](=O)[O-])cc2)cc1,> 50 µM (inactive)
15,CCCCCC(=O)N(CN1C(=O)c2ccccc2C1=O)c1ccc(OCc2ccccc2)cc1,> 50 µM (inactive)
16,CCn1nc(-c2ccc(C(=O)OC)cc2)nc2c(=O)n(C)c(=O)nc1-2,0.488 µM
17,O=c1cc[nH]c2cc(N3CCOCC3)c(F)cc12,> 50 µM (inactive)
18,Cn1nc(-c2ccccc2)nc2c(=O)n(C)c(=O)nc1-2,1.45 µM
19,CC(=O)N(/C=C1\Sc2ccccc2C1=O)c1ccc(C)cc1,> 50 µM (inactive)
20,Cn1c(O)c(C(=O)c2ccccc2Cl)c(=O)n(C)c1=O,> 50 µM (inactive)
21,CCn1nc(-c2ccc([N+](=O)[O-])cc2)nc2c(=O)n(C)c(=O)nc1-2,0.571 µM
22,Cc1ccc(-c2nnc3[nH]c(=O)n(C)c(=O)c3n2)cc1,> 50 µM (inactive)
23,COc1ccc(N(/N=C2\Sc3ccccc3C2=O)C(C)=O)cc1,15.2 µM
24,CC(=O)Oc1ccccc1N(/C=C1\Sc2ccccc2C1=O)C(C)=O,> 50 µM (inactive)
25,CCCC(=O)c1c(O)[nH]c(=O)[nH]c1=O,> 50 µM (inactive)

row,SMILES,IC50
1,CC(=O)N(CN1C(=O)c2ccccc2C1=O)c1ccc(C)c(Cl)c1,> 50 µM (inactive)
2,CC(=O)N(CN1C(=O)c2ccc(Br)cc2C1=O)c1ccc(Cl)cc1,> 50 µM (inactive)
3,O=C1NC(=O)C(=Cc2cc(Cl)c(OCc3ccc(C(=O)O)cc3)c(Cl)c2)C(=O)N1,> 50 µM (inactive)
4,CCOC(=O)c1ccc(N=Cc2c(O)n(-c3ccc(C)cc3)c(=O)[nH]c2=O)cc1,> 50 µM (inactive)
5,CC(=O)Oc1ccccc1N(/C=C1/Sc2ccccc2C1=O)C(C)=O,> 50 µM (inactive)
6,CCc1ccc(-c2nc3c(=O)n(C)c(=O)nc-3n(CC)n2)cc1,0.786 µM and > 50 µM (inactive)
7,COc1ccccc1N(/C=C1\Sc2ccccc2C1=O)C(C)=O,> 50 µM (inactive)
8,CCCCOC(=O)c1ccc(N=Cc2c(O)[nH]c(=O)[nH]c2=O)cc1,> 50 µM (inactive)
9,CC(=O)N(/N=C1\Sc2ccccc2C1=O)c1ccccc1,20.5 µM
10,COC(=O)c1ccc(N(/N=C2\Sc3ccccc3C2=O)C(C)=O)cc1,13.9 µM
11,CC(=O)N(CN1C(=O)c2ccccc2C1=O)c1ccc2ccccc2c1,> 50 µM (inactive)
12,O=C1NC(=O)C(=Cc2cccn2-c2ccc([N+](=O)[O-])cc2)C(=O)N1,> 50 µM (inactive)
13,CCN(CC)CCOC(=O)c1ccc(N=Cc2c(O)[nH]c(=O)[nH]c2=O)cc1,> 50 µM (inactive)
14,CCCCOC(=O)c1ccc(NC(=O)c2cc(OCC)c(OCC)c(OCC)c2)cc1,> 50 µM (inactive)
15,CC(=O)N(CN1C(=O)c2ccccc2C1=O)c1ccc(I)cc1,> 50 µM (inactive)
16,Cn1nc(-c2ccc([N+](=O)[O-])cc2)nc2c(=O)n(C)c(=O)nc1-2,0.375 µM
17,Cc1ccccc1-c1nc2c(=O)n(C)c(=O)nc-2n(C)n1,1.68 µM and 4.03 µM
18,CC(=O)N(/N=C1\Sc2ccccc2C1=O)c1ccccc1Cl,> 50 µM (inactive)
19,CCn1nc(-c2ccc(C(F)(F)F)cc2)nc2c(=O)n(C)c(=O)nc1-2,0.552 µM
20,CCOC(=O)c1ccc(NC(=O)c2ccc(Cl)c(Cl)c2)cc1,> 50 µM (inactive)
21,CCn1nc(-c2ccccc2)nc2c(=O)n(C)c(=O)nc1-2,0.524 µM
22,CCOC(=O)c1ccc(NC(=O)C2CCC(C(C)(C)C)CC2)cc1 (centres undefined),> 50 µM (inactive)
23,CCn1nc(-c2ccc(C)cc2)nc2c(=O)n(C)c(=O)nc1-2,0.932 µM
24,CCn1nc(-c2cccc(Cl)c2)nc2c(=O)n(C)c(=O)nc1-2,0.282 µM and > 50 µM (inactive)
25,CCOC(=O)c1ccc(NC(=O)c2ccc3snnc3c2)cc1,> 50 µM (inactive)

row,SMILES,IC50
1,O=C1NC(=O)C(=Cc2ccccc2OCCOc2ccccc2)C(=O)N1,> 50 µM (inactive)
2,CC(=O)N(/N=C1\Sc2ccccc2C1=O)c1ccccc1C,37.4 µM
3,Cn1nc(-c2ccc(C(F)(F)F)cc2)nc2c(=O)n(C)c(=O)nc1-2,0.21 µM and 0.851 µM
4,O=c1[nH]c2c(c(O)c1-c1ccccc1)c(=O)n(-c1ccccc1)c(=O)n2-c1ccccc1,> 50 µM (inactive)
5,CCCOC(=O)c1ccc(NC(=O)c2ccc(OC)c([N+](=O)[O-])c2)cc1,> 50 µM (inactive)
6,CCOC(=O)c1ccc(N=Cc2c(O)n(C)c(=O)n(C)c2=O)cc1,> 50 µM (inactive)
7,CCOC(=O)c1ccc(NC(=O)C2Oc3ccccc3OC2C)cc1 (centres undefined),> 50 µM (inactive)
8,COc1ccc(C(=O)COC(=O)c2ccc(NC(=O)c3ccccc3)cc2)cc1,> 50 µM (inactive)
9,CCn1nc(-c2ccccc2Br)nc2c(=O)n(C)c(=O)nc1-2,1.35 µM
10,Cn1c(=O)c2nc(-c3ccccc3)c(=O)[nH]c2n(C)c1=O,> 50 µM (inactive)
11,O=c1[nH]c(=O)c2nc(-c3ccc(Cl)cc3)cnc2[nH]1,> 50 µM (inactive)
12,Cn1c(=O)[nH]c2nnc(-c3ccc(F)cc3)nc2c1=O,> 50 µM (inactive)
13,Cn1c(=O)[nH]c2nnc(-c3ccccc3)nc2c1=O,> 50 µM (inactive)
14,CC(=O)N(/N=C1\Sc2ccccc2C1=O)c1ccc(C)cc1C,> 50 µM (inactive)
15,CCOC(=O)c1ccc(NC(=O)C2CC(=O)NC(=NC)S2)cc1 (centres undefined),> 50 µM (inactive)
16,CCOc1cc(-c2nnc3[nH]c(=O)n(C)c(=O)c3n2)ccc1OC(C)C,28.9 µM
17,Cc1ccc(N(CN2C(=O)c3ccc([N+](=O)[O-])cc3C2=O)C(=O)C(c2ccccc2)c2ccccc2)cc1,> 50 µM (inactive)
18,CCN(CC)CCOC(=O)c1ccc(N=Cc2c(O)n(C)c(=O)[nH]c2=O)cc1,> 50 µM (inactive)
19,COc1ccccc1N(CN1C(=O)c2ccc([N+](=O)[O-])cc2C1=O)C(C)=O,> 50 µM (inactive)
20,CC(=O)N(/C=C1\Sc2ccccc2C1=O)c1ccc(I)cc1,> 50 µM (inactive)
21,Cn1c(=O)[nH]c2nnc(-c3ccc4c(c3)OCO4)nc2c1=O,> 50 µM (inactive) and 4.91 µM
22,COc1ccc(N(/C=C2\Sc3ccccc3C2=O)C(C)=O)cc1,> 50 µM (inactive)
23,CC(=O)N(/C=C1\Sc2ccccc2C1=O)c1cccc(C)c1,> 50 µM (inactive)
24,COc1ccccc1N(/N=C1\Sc2ccccc2C1=O)C(C)=O,13.3 µM
